For eleven molecules, IC50 results are on record in patent US20240150334A1, “HSD17B13 INHIBITORS AND/OR DEGRADERS” (Pfizer Inc., priority 2022, published 2024).

pIC50: −log10 of the molar value. Counter-ions that a name gives are not always drawn.

Sequence of wild type human HSD17B13 (Q7Z5P4 20-300): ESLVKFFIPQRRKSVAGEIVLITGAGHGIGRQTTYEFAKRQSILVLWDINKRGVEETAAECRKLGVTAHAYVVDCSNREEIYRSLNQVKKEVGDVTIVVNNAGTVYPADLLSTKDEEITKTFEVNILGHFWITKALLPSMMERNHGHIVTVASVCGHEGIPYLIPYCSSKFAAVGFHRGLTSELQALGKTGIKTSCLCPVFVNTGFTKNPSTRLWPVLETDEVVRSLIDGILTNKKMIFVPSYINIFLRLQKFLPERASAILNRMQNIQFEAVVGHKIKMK

The test addresses wild type human HSD17B13 (Homo sapiens (Human), UniProt Q7Z5P4). As to the kind of experiment: HEK_Beta-Est LCMS_IC50_Tekcel, whole-cell HEK-HSD17B13 inhibition assay, estrone production by LCMS. The test is classed as cell-based. The settings on record: geometric mean, HEK cells stably expressing wild type human HSD17B13, 25 μM FAC beta-estradiol, read-out: HEK_Beta-Est LCMS_IC50—Tekcel GMean IC50. On the procedure: HEK_Beta-Est LCMS_IC50_Tekcel
Inhibition potency of test compounds was determined using a whole-cell HEK-HSD17B13 inhibition assay, utilizing a LCMS readout.
HSD17B13 uses the oxidized form of nicotinamide adenine dinucleotide (NAD+) as a cofactor during metabolism of beta-estradiol (substrate), converting NAD+ to the reduced form (NADH) and beta-estradiol to its product (estrone). Estrone production is quantified by LCMS, and used as a measure of HSD17B13 enzyme activity.
([…]: 5% CO2). […] Growth media was then removed from the cell plates and replaced with 10 μL of 2×FAC test compound, and incubated for 1 hour (with lid) at 37° C. […] The reaction was incubated for 2 hours (with lid) at 37° C. […] Amount of product (estrone) was then quantified by LCMS. Data expressed as product area ratio (PAR) were then normalized to control wells using Activity Base (IDBS). Zero percent effect (ZPE) was defined as PAR generated from uninhibited HSD17B13 (vehicle control).
In the case of `Cc1cncc(-c2ccc3cn([C@H]4CC[C@H](CNC(=O)c5cc(F)c(O)c(F)c5)CC4)nc3c2)c1` [Example 90, 3,5-difluoro-4-hydroxy-N-({(1r,4r)-4-[6-(5-methylpyridin-3-yl)-2H-indazol-2-yl]cyclohexyl}methyl) benzamide, trifluoroacetate salt], the negative logarithm of the IC50 (pIC50) (as a rule, −log10 of the IC50, conventionally taken in molar units) was 6.70.

As to `O=C(NC[C@H]1CC[C@H](n2cc3ccc(-c4ncc5cc[nH]c5n4)cc3n2)CC1)c1cc(F)c(O)c(F)c1` [Example 97, 3,5-difluoro-4-hydroxy-N-({(1r,4r)-4-[6-(7H-pyrrolo[2,3-d]pyrimidin-2-yl)-2H-indazol-2-yl]cyclohexyl}methyl) benzamide], the negative logarithm of the IC50 (pIC50) is 6.52.

As to `O=C(NC[C@H]1CC[C@H](n2cc3cc(-c4cncnc4)ccc3n2)CC1)c1cc(F)c(O)c(F)c1` [Example 157, 3,5-difluoro-4-hydroxy-N-({(1r,4r)-4-[5-(pyrimidin-5-yl)-2H-indazol-2-yl]cyclohexyl}methyl) benzamide, trifluoroacetate salt], the pIC50 is 6.57.

For `COc1cccc(-c2ccc3cn([C@H]4CC[C@H](CNC(=O)c5cc(F)c(O)c(F)c5)CC4)nc3c2)n1` [Example 116, 3,5-difluoro-4-hydroxy-N-({(1r,4r)-4-[6-(6-methoxy-pyridin-2-yl)-2H-indazol-2-yl]cyclohexyl}methyl) benzamide, trifluoroacetate salt], the negative logarithm of the IC50 (pIC50) is 6.72.

As to `O=C(NC[C@H]1CC[C@H](n2cc3ccc(-c4cnoc4)cc3n2)CC1)c1cc(F)c(O)c(F)c1` [Example 111, 3,5-difluoro-4-hydroxy-N-({(1r,4r)-4-[6-(1,2-oxazol-4-yl)-2H-indazol-2-yl]cyclohexyl}methyl) benzamide], the negative-log IC50 (pIC50) was 7.09.

As for `O=C(NC[C@H]1CC[C@H](n2cc3ccc(-c4csc(N5CCOCC5)n4)cc3n2)CC1)c1cc(F)c(O)c(F)c1` [Example 114, 3,5-difluoro-4-hydroxy-N-{[(1r,4r)-4-{6-[2-(morpholin-4-yl)-1,3-thiazol-4-yl]-2H-indazol-2-yl}cyclohexyl]methyl} benzamide], the pIC50 was 6.77.

`O=C(NC[C@H]1CC[C@H](n2cc3ccc(-c4ccsn4)cc3n2)CC1)c1cc(F)c(O)c(F)c1` [Example 98, 3,5-difluoro-4-hydroxy-N-({(1r,4r)-4-[6-(1,2-thiazol-3-yl)-2H-indazol-2-yl]cyclohexyl}methyl) benzamide]: the pIC50 was 6.96.

With `O=C(NC[C@H]1CC[C@H](n2cc3ccc(-c4cccn5ncnc45)cc3n2)CC1)c1cc(F)c(O)c(F)c1` [Example 113, 3,5-difluoro-4-hydroxy-N-({(1r,4r)-4-[6-([1,2,4]triazolo[1,5-a]pyridin-8-yl)-2H-indazol-2-yl]cyclohexyl}methyl) benzamide, trifluoroacetate salt], the negative-log IC50 (pIC50) is 6.49.

With `O=C(NC[C@]12CC[C@](c3nc(-c4ncc(C(F)(F)F)cn4)no3)(CC1)CC2)c1cc(F)c(O)c(F)c1` [Example 203, 3,5-difluoro-4-hydroxy-N-[(4-{3-[5-(trifluoromethyl)pyrimidin-2-yl]-1,2,4-oxadiazol-5-yl}bicyclo[2.2.2]octan-1-yl)methyl]benzamide], the negative-log IC50 (pIC50) was 7.01.

Regarding `Cc1ncc(-c2ccc3cn([C@H]4CC[C@H](CNC(=O)c5cc(F)c(O)c(F)c5)CC4)nc3c2)s1` [Example 88, 3,5-difluoro-4-hydroxy-N-({(1r,4r)-4-[6-(2-methyl-1,3-thiazol-5-yl)-2H-indazol-2-yl]cyclohexyl}methyl)benzamide], the negative logarithm of the IC50 (pIC50) was 6.77.

In the case of `Cc1ccn(-c2ccc3cn([C@H]4CC[C@H](CNC(=O)c5cc(F)c(O)c(F)c5F)CC4)nc3c2)n1` [Example 162, 2,3,5-trifluoro-4-hydroxy-N-({(1r,4r)-4-[6-(3-methyl-1H-pyrazol-1-yl)-2H-indazol-2-yl]cyclohexyl}methyl) benzamide], the pIC50 is 6.51.
